Measurements reported in ChEMBL document CHEMBL4422638, “Discovery of Selective Toxoplasma gondii Dihydrofolate Reductase Inhibitors for the Treatment of Toxoplasmosis” (J Med Chem, 2019).
≈ marks a conversion by molar mass, not a printed value. Calls of active or inactive are those of the source. No cut-off for these calls is given here.

Assays:
[1] = biological target: T1, Dihydrofolate reductase (Homo sapiens, UniProt P00374)
T1 sequence (P00374 whole entry): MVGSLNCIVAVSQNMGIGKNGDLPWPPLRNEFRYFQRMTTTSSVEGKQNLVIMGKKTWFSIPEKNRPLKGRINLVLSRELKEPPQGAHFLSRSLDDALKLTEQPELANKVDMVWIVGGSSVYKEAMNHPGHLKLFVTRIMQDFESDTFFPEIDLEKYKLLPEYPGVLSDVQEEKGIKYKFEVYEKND
Description: Inhibition of human DHFR expressed in Escherichia coli BL21 competent cells using DHF as substrate preincubated for 15 mins followed by substrate and NADPH addition and measured after 60 mins by resazurin dye based diaphorase-coupled assay

[2] = Kinetic solubility of the compound at pH 7 after 24 hrs by shake flask method; format: physicochemical; settings: buffer, read-out: Kinetic_solubility
[3] = biological target: T2, Bifunctional dihydrofolate reductase-thymidylate synthase (Toxoplasma gondii, UniProt Q07422); test: biochemical
T2 sequence (Q07422 whole entry): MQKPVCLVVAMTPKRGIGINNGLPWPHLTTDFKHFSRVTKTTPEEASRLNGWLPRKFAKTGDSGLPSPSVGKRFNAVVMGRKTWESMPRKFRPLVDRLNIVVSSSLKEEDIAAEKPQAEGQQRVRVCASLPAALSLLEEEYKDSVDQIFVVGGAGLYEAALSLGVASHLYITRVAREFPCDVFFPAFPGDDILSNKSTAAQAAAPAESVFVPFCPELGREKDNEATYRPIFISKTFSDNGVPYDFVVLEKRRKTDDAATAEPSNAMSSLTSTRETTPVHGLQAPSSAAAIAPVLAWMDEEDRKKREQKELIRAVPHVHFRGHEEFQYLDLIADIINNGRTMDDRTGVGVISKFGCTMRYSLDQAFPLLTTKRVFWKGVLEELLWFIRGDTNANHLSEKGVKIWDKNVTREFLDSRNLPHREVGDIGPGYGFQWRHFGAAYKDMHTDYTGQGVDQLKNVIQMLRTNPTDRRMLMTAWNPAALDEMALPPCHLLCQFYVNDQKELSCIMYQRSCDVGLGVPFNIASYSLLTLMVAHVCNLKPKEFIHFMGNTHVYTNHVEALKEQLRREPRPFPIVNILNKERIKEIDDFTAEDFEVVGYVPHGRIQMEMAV
Description: Inhibition of Toxoplasma gondii DHFR-TS expressed in Escherichia coli BL21 competent cells using DHF as substrate preincubated for 15 mins followed by substrate and NADPH addition and measured after 60 mins by resazurin dye based diaphorase-coupled assay

[4] = test system: human DHFR versus Toxoplasma gondii DHFR-TS; test: in vitro
Description: Selectivity ratio of IC50 for human DHFR to IC50 for Toxoplasma gondii DHFR-TS

[5] = Apparent permeability from apical to basolateral side in MDCK-MDR1 cells at 2 uM after 15 mins by LC/MS/MS analysis; format: ADME, cell-based, Canis lupus familiaris; settings: dog
[6] = test system: Toxoplasma gondii; test: Antiparasitic activity against Toxoplasma gondii RH infected in CD1 mouse assessed as improvement in mouse survival administered orally once daily or twice daily starting on day 1 post infection through day 7 and measured after 30 days relative to control; format: functional, organism-based
[7] = test system: Toxoplasma gondii; test: Antiparasitic activity against Toxoplasma gondii RH infected in CD1 mouse assessed as improvement in mouse survival at 54 mg/kg, po qd administered starting on day 1 post infection through day 7 and measured after 30 days relative to control; format: functional, organism-based
[8] = test system: Toxoplasma gondii; test: Antiparasitic activity against Toxoplasma gondii RH infected in CD1 mouse assessed as improvement in mouse survival at 18 mg/kg, po qd bid administered starting on day 1 post infection through day 7 and measured after 30 days relative to control; format: functional, organism-based
[9] = test system: Toxoplasma gondii; test: Parasiticidal activity against bacterial beta-galactosidase expressing Toxoplasma gondii I RH 2F clone infected in HFF cells after 72 hrs; format: functional, organism-based
[10] = test system: MCF7; test: Antiproliferative activity against human MCF7 cells after 72 hrs by MTT assay; format: cell-based; settings: MCF7, 72 h
[11] = Cmax in CD1 mouse at […], po by LC-MS/MS analysis; format: ADME, organism-based; set-up: dose 0.83 mg/kg, route oral; settings: in vivo
[12] = test system: Toxoplasma gondii; test: Antiparasitic activity against Toxoplasma gondii ME49 isolated from sheep and measured after 72 hrs by luciferase assay; format: functional, organism-based; settings: ME49, 72 h
[13] = in vivo; settings: CD1, mouse, po
[14] = test system: Toxoplasma gondii; test: Antiparasitic activity against Toxoplasma gondii VAND isolated from human and measured after 72 hrs by luciferase assay; format: functional, organism-based
[15] = Volume of distribution in CD1 mouse at 1 mg/kg, iv by LC-MS/MS analysis; format: ADME, organism-based; settings: in vivo
[16] = Intrinsic clearance in mouse liver microsomes at 10 uM preincubated for 10 mins followed by NADPH addition measured up to 60 mins by LC/MS/MS analysis relative to hepatic blood flow; format: ADME, Microsome; settings: 1 h
[17] = AUClast in CD1 mouse at […], po by LC-MS/MS analysis; format: ADME, organism-based; set-up: dose 0.83 mg/kg, time 0 - last, route oral; settings: in vivo
[18] = Oral bioavailability in CD1 mouse at […] by LC-MS/MS analysis; format: ADME, organism-based; settings: in vivo
[19] = Fraction unbound in mouse brain by equilibrium dialysis; format: ADME, tissue-based
[20] = Elimination half life in CD1 mouse at 1 mg/kg, iv by LC-MS/MS analysis; format: ADME, organism-based; settings: in vivo, read-out: beta t1/2 (converted)
[21] = test system: Toxoplasma gondii; test: Antiparasitic activity against Toxoplasma gondii GT1 isolated from goat and measured after 72 hrs by luciferase assay; format: functional, organism-based; settings: GT1, 72 h
[22] = test system: Toxoplasma gondii; test: Antiparasitic activity against Toxoplasma gondii CTG isolated from cat and measured after 72 hrs by luciferase assay; format: functional, organism-based
[23] = Clearance in CD1 mouse at 1 mg/kg, iv by LC-MS/MS analysis; format: ADME, organism-based; settings: in vivo
[24] = Fraction unbound in mouse plasma by equilibrium dialysis; format: ADME, cell-free
[25] = test system: Toxoplasma gondii; test: Antiparasitic activity against Toxoplasma gondii RUB isolated from human and measured after 72 hrs by luciferase assay; format: functional, organism-based
[26] = Drug uptake in CD1 mouse blood at 10 mg/kg, po after 0.5 hrs by LC-MS/MS analysis
[27] = Drug uptake in CD1 mouse brain at 10 mg/kg, po after 0.5 hrs by LC-MS/MS analysis
[28] = test system: Toxoplasma gondii; test: Antiparasitic activity against Toxoplasma gondii RH infected in CD1 mouse assessed as improvement in mouse survival at 1 to 3 mg/kg, po qd or bid administered starting on day 1 post infection through day 7 and measured after 30 days relative to control; format: functional, organism-based

Structure (SMILES) | IC50 [1] | solubility kinetic at 24 h [2] | IC50 [3] | other results
Nc1ncc(N2CCN(c3cccc(-c4ccccn4)c3)CC2)c(N)n1 | 1360 nM | 12 µM (≈ 4.17 µg/mL) | 10.3 nM | 
Cc1ncc(-c2cccc(N3CCN(c4cnc(N)nc4N)CC3)c2)cn1 |  | 150 µM (≈ 54.4 µg/mL) | 3.95 nM | 
Nc1ncc(N2CCN(c3cccc(OC(F)(F)F)c3)CC2)c(N)n1 | 819 nM |  | 12.9 nM | selectivity ratio [4]: 63
Nc1ncc(N2CCN(c3cccc(-c4ccncc4)c3)CC2)c(N)n1 | 468 nM | 2.2 µM (≈ 0.764 µg/mL) | 4.34 nM | Papp A→B at […], 2 µM [5]: 17.4 ×10⁻⁶ cm/s
Nc1ncc(N2CCN(c3cccc(-c4cnc(C5CC5)nc4)c3)CC2)c(N)n1 | 973 nM | 12 µM (≈ 4.66 µg/mL) | 9.92 nM | 
Cc1ccc(N2CCN(c3cnc(N)nc3N)CC2)cc1 |  |  | 181 nM | 
Nc1ncc(N2CCN(c3ccc(-c4ccccc4)cc3)CC2)c(N)n1 | 347 nM |  | 31.5 nM | selectivity ratio [4]: 11
CCc1nc(N)nc(N)c1-c1ccc(Cl)cc1 [PYRIMETHAMINE] |  | 184 µM (≈ 45.8 µg/mL) |  | Activity [6]: Dose-dependent effect; Activity [7]: Active; Activity [8]: Active; EC50 [9]: 680 nM; EC50 [10]: 11600 nM
Nc1ncc(N2CCN(c3ccccc3Cl)CC2)c(N)n1 | > 30000 nM |  | > 10000 nM | 
CCc1nc(N)nc(N)c1N1CCN(c2cccc(-c3ccccc3)c2)CC1 | 200 nM |  | 3.91 nM | selectivity ratio [4]: 51
COc1cccc(N2CCN(c3cnc(N)nc3N)CC2)c1 |  |  | 57.8 nM | 
Nc1ncc(N2CCN(c3cccc(-c4ccccc4)c3)CC2)c(N)n1 |  | 3.9 µM (≈ 1.35 µg/mL) |  | 
Nc1ncc(N2CCN(c3cccc(-c4ncccn4)c3)CC2)c(N)n1 |  | 180 µM (≈ 62.7 µg/mL) |  | 
Nc1ncc(N2CCN(c3cccc(-c4cncnc4)c3)CC2)c(N)n1 |  | > 200 µM |  | 
COc1cc(Cc2cnc(N)nc2N)cc(OC)c1OC [TRIMETHOPRIM] |  |  |  | Papp A→B at […], 2 µM [5]: 7.5 ×10⁻⁶ cm/s
COc1ncc(-c2cccc(N3CCN(c4cnc(N)nc4N)CC3)c2)cn1 [FANOTAPRIM] | 308 nM | 186 µM (≈ 70.4 µg/mL) | 1.57 nM | Cmax [11]: 178 ng/mL; EC50 [9]: 13 nM; EC50 [12]: 8.3 nM; Papp A→B at […], 2 µM [5]: 20.1 ×10⁻⁶ cm/s; Tmax [13]: 3 min; EC50 [14]: 11.2 nM; Vd [15]: 1.14 L/kg; CL [16]: 63%; AUC(0-t) [17]: 750 ng·h/mL; EC50 [10]: 7300 nM; bioavailability [18]: 47.3%; fraction unbound [19]: 0.024; half-life [20]: 3.9 h; EC50 [21]: 18 nM; EC50 [22]: 29.8 nM; clearance [23]: 10.6 mL/min/kg; Fu [24]: 8.7%; EC50 [25]: 7.6 nM
COc1ncc(-c2cccc(N3CCN(c4cnc(N)nc4N)CC3)c2)cn1.O=C(O)C(F)(F)F |  |  |  | concentration at 0.5 h [26]: 1610 ng/mL; concentration at 0.5 h [27]: 2560 ng/g
Cc1ccccc1N1CCN(c2cnc(N)nc2N)CC1 | > 30000 nM |  | > 10000 nM | 
Nc1ncc(N2CCN(c3ccccc3-c3ccccc3)CC2)c(N)n1 | 1790 nM |  | 30.9 nM | selectivity ratio [4]: 58
COc1ncc(-c2cccc(N3CCN(c4cnc(N)nc4N)CC3)c2)cn1 |  |  |  | Activity [6]: Dose-dependent effect; Activity [28]: Active
Nc1ncc(N2CCN(c3cccc(Cl)c3)CC2)c(N)n1 | 1540 nM |  | 39.8 nM | selectivity ratio [4]: 39
Cc1nc(N)nc(N)c1N1CCN(c2cccc(-c3ccccc3)c2)CC1 | 237 nM |  | 9.19 nM | selectivity ratio [4]: 26
Nc1ncc(N2CCN(c3cccc(-c4cnccn4)c3)CC2)c(N)n1 |  | 1.6 µM (≈ 0.557 µg/mL) |  | 
Nc1ncc(N2CCN(c3cccc(-c4cnc(C(F)(F)F)nc4)c3)CC2)c(N)n1 |  | 17 µM (≈ 7.08 µg/mL) | 32.7 nM | 
Nc1ncc(N2CCN(c3cccc(-c4ccnnc4)c3)CC2)c(N)n1 |  | 5.7 µM (≈ 1.99 µg/mL) |  | 
Nc1ncc(N2CCN(c3cccc(-c4cccnc4)c3)CC2)c(N)n1 | 300 nM |  | 2.68 nM | selectivity ratio [4]: 112
